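Cells were grown in 96-well plates and exposed to each compound for 48 hours at five concentrations; endpoints were interpolated linearly between bracketing concentrations, or set to the highest concentration if not reached. Here, GI50 denotes the concentration required for 50% inhibition of growth.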 The source made the active and inactive calls. Cut-off read from the data, not from the text of the source: active = GI50 up to about 1.1 µM and inactive = higher.
Tests used:
Test in all cases: NCI anticancer screen, dose series, 48 h
[1] = system: SK-MEL-28
[2] = system: CCRF-CEM
[3] = system: SNB-78
[4] = system: TK-10
[5] = system: EKVX
[6] = system: 786-0
[7] = system: HL-60
[8] = system: HOP-92
[9] = system: UO-31
[10] = system: UACC-62
[11] = system: NCI-H23
[12] = system: IGROV-1
[13] = system: NCI-H226
[14] = system: LXFL 529
[15] = system: HCC 2998
[16] = system: A498
[17] = system: Malme-3M
[18] = system: ACHN
[19] = system: SNB-19
[20] = system: K562
[21] = system: SF-295
[22] = system: HT-29
[23] = system: HCT-116
[24] = system: SK-OV-3
[25] = system: HOP-18
[26] = system: RXF 393
[27] = system: A549
[28] = system: SNB-75
[29] = system: DLD-1
[30] = system: SK-MEL-5
[31] = system: KM-20L2
[32] = system: LOX IMVI
[33] = system: SN12C
[34] = system: SF-268
[35] = system: XF498
[36] = system: M19-MEL
[37] = system: OVCAR-4
[38] = system: UACC-257
[39] = system: SW-620
[40] = system: U-251
[41] = system: HOP-62
[42] = system: NCI-H522
[43] = system: OVCAR-8
[44] = system: M14
[45] = system: DMS-114
[46] = system: OVCAR-3
[47] = system: CAKI-1
[48] = system: SF-539
[49] = system: NCI-H460
[50] = system: HCT-15
[51] = system: COLO 205
[52] = system: SK-MEL-2
[53] = system: DMS-273
[54] = system: KM12
[55] = system: MOLT-4
[56] = system: RPMI-8226

COc1ccc2nc(NC(=O)C(=O)NNC(=O)c3ccncc3)sc2c1
GI50 [1]: > 100 µM (inactive) | GI50 [2]: > 100 µM (inactive) | GI50 [3]: > 100 µM (inactive) | GI50 [4]: > 100 µM (inactive) | GI50 [5]: > 100 µM (inactive) | GI50 [6]: > 100 µM (inactive) | GI50 [7]: > 100 µM (inactive) | GI50 [8]: > 100 µM (inactive) | GI50 [9]: > 100 µM (inactive) | GI50 [10]: > 100 µM (inactive) | GI50 [11]: > 100 µM (inactive) | GI50 [12]: > 100 µM (inactive) | GI50 [13]: > 100 µM (inactive) | GI50 [14]: > 100 µM (inactive) | GI50 [15]: > 100 µM (inactive) | GI50 [16]: > 100 µM (inactive) | GI50 [17]: > 100 µM (inactive) | GI50 [18]: > 100 µM (inactive) | GI50 [19]: > 100 µM (inactive) | GI50 [20]: > 100 µM (inactive) | GI50 [21]: > 100 µM (inactive) | GI50 [22]: > 100 µM (inactive) | GI50 [23]: > 100 µM (inactive) | GI50 [24]: > 100 µM (inactive) | GI50 [25]: > 100 µM (inactive) | GI50 [26]: > 100 µM (inactive) | GI50 [27]: > 100 µM (inactive) | GI50 [28]: > 100 µM (inactive) | GI50 [29]: > 100 µM (inactive) | GI50 [30]: > 100 µM (inactive) | GI50 [31]: > 100 µM (inactive) | GI50 [32]: > 100 µM (inactive) | GI50 [33]: > 100 µM (inactive) | GI50 [34]: > 100 µM (inactive) | GI50 [35]: > 100 µM (inactive) | GI50 [36]: > 100 µM (inactive) | GI50 [37]: > 100 µM (inactive) | GI50 [38]: > 100 µM (inactive) | GI50 [39]: > 100 µM (inactive) | GI50 [40]: > 100 µM (inactive) | GI50 [41]: > 100 µM (inactive) | GI50 [42]: > 100 µM (inactive) | GI50 [43]: > 100 µM (inactive) | GI50 [44]: > 100 µM (inactive) | GI50 [45]: > 100 µM (inactive) | GI50 [46]: > 100 µM (inactive) | GI50 [47]: > 100 µM (inactive) | GI50 [48]: > 100 µM (inactive) | GI50 [49]: > 100 µM (inactive) | GI50 [50]: > 100 µM | GI50 [51]: > 100 µM (inactive)

CC(=O)Oc1cc(OC(C)=O)c2c(=O)c3ccccc3[nH]c2c1
GI50 [1]: 54.6 µM (inactive) | GI50 [3]: 57 µM (inactive) | GI50 [4]: 38.5 µM (inactive) | GI50 [9]: 12.5 µM (inactive) | GI50 [10]: 62.1 µM (inactive) | GI50 [11]: 27.2 µM (inactive) | GI50 [12]: 19.1 µM (inactive) | GI50 [13]: 27.5 µM (inactive) | GI50 [14]: 26.9 µM (inactive) | GI50 [52]: 49.5 µM (inactive) | GI50 [53]: 45.4 µM (inactive) | GI50 [54]: 37.8 µM (inactive) | GI50 [17]: 24.4 µM (inactive) | GI50 [18]: 24.6 µM (inactive) | GI50 [19]: 70.1 µM (inactive) | GI50 [21]: 32.7 µM (inactive) | GI50 [22]: 49.2 µM (inactive) | GI50 [23]: 56.8 µM (inactive) | GI50 [24]: 13.9 µM (inactive) | GI50 [25]: 10.5 µM (inactive) | GI50 [26]: 58.3 µM (inactive) | GI50 [27]: 61.9 µM (inactive) | GI50 [28]: 35.2 µM (inactive) | GI50 [29]: 21.3 µM (inactive) | GI50 [30]: 18.9 µM (inactive) | GI50 [32]: 39.4 µM (inactive) | GI50 [33]: 36.5 µM (inactive) | GI50 [34]: 50.5 µM (inactive) | GI50 [35]: 11.2 µM (inactive) | GI50 [36]: 31.9 µM (inactive) | GI50 [37]: 65.9 µM (inactive) | GI50 [38]: 28.1 µM (inactive) | GI50 [42]: 24.8 µM (inactive) | GI50 [43]: 32.9 µM (inactive) | GI50 [45]: 24.8 µM (inactive) | GI50 [46]: 16.2 µM (inactive) | GI50 [48]: 20.8 µM (inactive) | GI50 [49]: 33.3 µM (inactive) | GI50 [50]: 49.3 µM | GI50 [55]: 27.5 µM (inactive)

Cc1cc2c(cc1CO)N1Cc3cc(C)c(CO)cc3N(C2)C1
GI50 [1]: > 100 µM (inactive) | GI50 [2]: > 100 µM (inactive) | GI50 [3]: > 100 µM (inactive) | GI50 [4]: > 100 µM (inactive) | GI50 [5]: > 100 µM (inactive) | GI50 [6]: > 100 µM (inactive) | GI50 [7]: > 100 µM (inactive) | GI50 [10]: > 100 µM (inactive) | GI50 [11]: > 100 µM (inactive) | GI50 [56]: > 100 µM (inactive) | GI50 [12]: > 100 µM (inactive) | GI50 [13]: > 100 µM (inactive) | GI50 [14]: > 100 µM (inactive) | GI50 [15]: > 100 µM (inactive) | GI50 [53]: > 100 µM (inactive) | GI50 [54]: > 100 µM (inactive) | GI50 [19]: > 100 µM (inactive) | GI50 [20]: > 100 µM (inactive) | GI50 [21]: > 100 µM (inactive) | GI50 [22]: > 100 µM (inactive) | GI50 [23]: > 100 µM (inactive) | GI50 [24]: > 100 µM (inactive) | GI50 [25]: > 100 µM (inactive) | GI50 [26]: > 100 µM (inactive) | GI50 [27]: > 100 µM (inactive) | GI50 [28]: > 100 µM (inactive) | GI50 [29]: > 100 µM (inactive) | GI50 [30]: > 100 µM (inactive) | GI50 [31]: > 100 µM (inactive) | GI50 [32]: > 100 µM (inactive) | GI50 [33]: > 100 µM (inactive) | GI50 [34]: > 100 µM (inactive) | GI50 [35]: > 100 µM (inactive) | GI50 [36]: > 100 µM (inactive) | GI50 [37]: > 100 µM (inactive) | GI50 [39]: > 100 µM (inactive) | GI50 [40]: > 100 µM (inactive) | GI50 [41]: > 100 µM (inactive) | GI50 [42]: > 100 µM (inactive) | GI50 [43]: > 100 µM (inactive) | GI50 [44]: > 100 µM (inactive) | GI50 [45]: > 100 µM (inactive) | GI50 [46]: > 100 µM (inactive) | GI50 [48]: > 100 µM (inactive) | GI50 [49]: > 100 µM (inactive) | GI50 [55]: > 100 µM (inactive) | GI50 [51]: > 100 µM (inactive)

Reference: ChEMBL document CHEMBL1201862, “PubChem BioAssay data set” (2004)
